# Source: patent publication US12371454B2, “Cyclic peptide compound having Kras inhibitory action” (priority 2019, dated 2025)
# Starred links: 1 amine or outer side, 2 acyl side, 3 side chain; linkers in the order of their positions; H or OH if unused. Positions of bridges follow the written chain, without caps; N, C: chain ends. Non-standard residues stand in square brackets, D forms with d. Residues, ends and D or L forms follow the SMILES beside them. *: point of attachment. hPhe(3,5-F2-4-CF3) = N[C@@H](CCc1cc(F)c(C(F)(F)F)c(F)c1)C(=O)O; hPhe(3-Cl-4-CF3) = N[C@@H](CCc1ccc(C(F)(F)F)c(Cl)c1)C(=O)O; hPhe(3-F,4-CF3) = N[C@@H](CCc1ccc(C(F)(F)F)c(F)c1)C(=O)O; NMePhe(4-CF3) = CN[C@@H](Cc1ccc(C(F)(F)F)cc1)C(=O)O; NMePhe(4-Me) = CN[C@@H](Cc1ccc(C)cc1)C(=O)O; NMePhe(3-F) = CN[C@@H](Cc1cccc(F)c1)C(=O)O; NMeNva(5,5-F2) = CN[C@@H](CCC(F)F)C(=O)O; NMeGly(cPent) = CN[C@H](C(=O)O)C1CCCC1; NMeAla(cPr) = CN[C@@H](CC1CC1)C(=O)O; NMeCha = CN[C@@H](CC1CCCCC1)C(=O)O; Hyp = O=C(O)[C@@H]1C[C@@H](O)CN1; NMeChg = CN[C@H](C(=O)O)C1CCCCC1; NMeI = CC[C@H](C)[C@H](NC)C(=O)O; dNMeF = CN[C@H](Cc1ccccc1)C(=O)O; NMeβAla = CN(CCC(=O)[*:2])[*:1]; NMeD = CN[C@@H](CC(=O)O)C(=O)O; NMeL = CN[C@@H](CC(C)C)C(=O)O; d(β3hP) = O=C(O)C[C@H]1CCCN1; NMeV = CN[C@H](C(=O)O)C(C)C; d(β3hA) = C[C@@H](N)CC(=O)O; NMeS = CN[C@@H](CO)C(=O)O; Morpholide = C1CN(*)CCO1; NMeA = CN[C@@H](C)C(=O)O; Piperidide = C1CCN(*)CC1; Ac5c = NC1(C(=O)O)CCCC1; Aze = O=C(O)[C@@H]1CCN1; CH2CMe2OH = CC(C)(O)C*; Aib = CC(C)(N)C(=O)O; Isopentyl = CC(C)CC*; Sar = CNCC(=O)O
# Molecular target: T1, Kras and SOS1 (biotin-tagged human Kras loaded with GDP, His-tagged human SOS1) (Homo sapiens, UniProt P01116, G12D)
# T1 construct: made in house; host or cells: E. coli (stated for Kras only)
# Assay: Protein-protein interaction inhibition between Kras and SOS1 (KrasGl2D-SOS PPI) using AlphaScreen
# Assay type: binding
# Conditions: AlphaScreen; biotin-tagged human Kras loaded with GDP, His-tagged human SOS1; read-out: KRAS G12D-SOS PPI IC50
# Procedure: Protein-Protein Interaction Inhibition Between Kras and SOS1 (KrasGl2D-SOS PPI) Using AlphaScreen
# Protein-protein interaction inhibition (PPI) between Kras and SOS1 was measured by energy transfer from nickel-conjugated donor beads to streptavidin-conjugated acceptor beads using biotin-tagged human Kras expressed in E. coli and loaded with GDP after purification and His-tagged human SOS1 enzyme. This measurement utilizes the phenomenon in which donor beads are irradiated with light at 680 nm, such that energy is transferred to acceptor beads through singlet oxygen and light at 520-620 nm is detected from the acceptor beads.
# Inhibition of binding between K-ras and SOS1 is known to inhibit signaling downstream of Kras.
# T1 sequence (P01116 1-188 isoform P01116-2 G12D): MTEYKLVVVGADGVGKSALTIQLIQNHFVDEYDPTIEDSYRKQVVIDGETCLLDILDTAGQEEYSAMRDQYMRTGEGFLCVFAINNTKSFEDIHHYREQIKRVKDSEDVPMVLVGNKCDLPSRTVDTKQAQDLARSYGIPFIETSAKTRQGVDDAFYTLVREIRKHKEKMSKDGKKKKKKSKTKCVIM
row,SMILES,IC50
1,"CC[C@H](C)[C@@H]1NC(=O)[C@H](CC(C)C)N(C)C(=O)C[C@@H](C(=O)N2CCCCC2)N(C)C(=O)[C@H](C2CCCCC2)N(C)C(=O)C2(CCCC2)NC(=O)[C@@H]2CCCN2C(=O)[C@H](CCc2ccc(C(F)(F)F)c(Cl)c2)NC(=O)CN(C)C(=O)[C@H](CCC(F)F)N(C)C(=O)CN(C)C(=O)CN(C)C1=O [Compound 1647] ([NMeL]I[Sar][Sar][NMeNva(5,5-F2)][Sar][hPhe(3-Cl-4-CF3)]P[Ac5c][NMeChg][NMeD]-Piperidide; lactam N-11)",3 nM
2,CC[C@H](C)[C@@H]1NC(=O)[C@H](C)N(C)C(=O)C[C@@H](C)NC(=O)[C@H](C2CCCC2)N(C)C(=O)C2(CCCC2)NC(=O)[C@@H]2CCCN2C(=O)[C@H](CCc2ccc(C(F)(F)F)c(Cl)c2)NC(=O)CN(C)C(=O)[C@H](Cc2cccc(F)c2)N(C)C(=O)[C@@H]2CCCN2C(=O)CN(C)C1=O [Compound 194] (cyclo([Ac5c][NMeGly(cPent)][d(β3hA)][NMeA]I[Sar]P[NMePhe(3-F)][Sar][hPhe(3-Cl-4-CF3)]P)),27 nM
3,CC[C@H](C)[C@@H]1NC(=O)[C@H](CC(C)C)N(C)C(=O)C[C@@H](C)NC(=O)[C@H](CC2CC2)N(C)C(=O)C2(CCCC2)NC(=O)[C@@H]2CCCN2C(=O)[C@H](CCc2ccc(C(F)(F)F)c(Cl)c2)NC(=O)CN(C)C(=O)[C@H](CC2CCCCC2)N(C)C(=O)CN(C)C(=O)CN(C)C1=O [Compound 707] (cyclo([Ac5c][NMeAla(cPr)][d(β3hA)][NMeL]I[Sar][Sar][NMeCha][Sar][hPhe(3-Cl-4-CF3)]P)),14 nM
4,CC[C@H](C)[C@@H]1NC(=O)[C@H](CC(C)C)N(C)C(=O)C[C@@H](C)NC(=O)[C@H](C(C)C)N(C)C(=O)C2(CCCC2)NC(=O)[C@@H]2CCCN2C(=O)[C@H](CCc2ccc(C(F)(F)F)c(Cl)c2)NC(=O)CN(C)C(=O)[C@H](CC2CCCCC2)N(C)C(=O)CN(C)C(=O)[C@@H]2CCN2C1=O [Compound 1020] (cyclo([Ac5c][NMeV][d(β3hA)][NMeL]I[Aze][Sar][NMeCha][Sar][hPhe(3-Cl-4-CF3)]P)),51 nM
5,CC[C@H](C)[C@@H]1NC(=O)CCN(C)C(=O)[C@@H](Cc2ccccc2)N(C)C(=O)[C@H](C2CCCC2)N(C)C(=O)C2(CCCC2)NC(=O)[C@@H]2CCCN2C(=O)[C@H](CCc2ccc(C(F)(F)F)c(Cl)c2)NC(=O)CN(C)C(=O)[C@H](CC2CCCCC2)N(C)C(=O)CN(C)C(=O)CN(C)C1=O [Compound 753] (cyclo([Ac5c][NMeGly(cPent)][dNMeF][NMeβAla]I[Sar][Sar][NMeCha][Sar][hPhe(3-Cl-4-CF3)]P)),35 nM
6,"CC[C@H](C)[C@@H]1NC(=O)[C@H](CC(C)C)N(C)C(=O)C[C@@H](C(=O)N2CCCCC2)N(C)C(=O)[C@H](CC(C)C)N(C)C(=O)C(C)(C)NC(=O)[C@H](COCC(C)(C)O)N(C)C(=O)[C@H](CCc2ccc(C(F)(F)F)c(F)c2)NC(=O)CN(C)C(=O)[C@H](COCCC(C)C)N(C)C(=O)CN(C)C(=O)CN(C)C1=O [Compound 1532] ([NMeL]I[Sar][Sar][NMeS](Isopentyl)[Sar][hPhe(3-F,4-CF3)][NMeS](CH2CMe2OH)[Aib][NMeL][NMeD]-Piperidide; lactam N-11)",4.8 nM
7,CC[C@H](C)[C@@H]1NC(=O)[C@H](C)N(C)C(=O)C[C@@H](C(=O)N2CCCCC2)N(C)C(=O)[C@H](C(C)C)N(C)C(=O)C2(CCCC2)NC(=O)[C@@H]2CCCN2C(=O)[C@H](CCc2ccc(C(F)(F)F)c(Cl)c2)NC(=O)[C@H]2CCCN2C(=O)[C@H](CC2CCCCC2)N(C)C(=O)CN(C)C(=O)CN(C)C1=O [Compound 135] ([NMeA]I[Sar][Sar][NMeCha][dP][hPhe(3-Cl-4-CF3)]P[Ac5c][NMeV][NMeD]-Piperidide; lactam N-11),38 nM
8,CC[C@H](C)[C@@H]1NC(=O)[C@H](CC(C)C)N(C)C(=O)C[C@H]2CCCN2C(=O)[C@H]([C@@H](C)CC)N(C)C(=O)C2(CCCC2)NC(=O)[C@@H]2CCCN2C(=O)[C@H](CCc2ccc(C(F)(F)F)c(Cl)c2)NC(=O)CN(C)C(=O)[C@H](Cc2ccc(C)cc2)N(C)C(=O)[C@@H]2CCN2C(=O)[C@H](C)N(C)C1=O [Compound 2003] (cyclo([Ac5c][NMeI][d(β3hP)][NMeL]I[NMeA][Aze][NMePhe(4-Me)][Sar][hPhe(3-Cl-4-CF3)]P)),8.6 nM
9,"CCO[C@@H]1C[C@H]2C(=O)NC3(CCCC3)C(=O)N(C)[C@@H]([C@@H](C)CC)C(=O)N(C)[C@H](C(=O)N3CCOCC3)CC(=O)N(C)[C@@H](CC(C)C)C(=O)N[C@@H]([C@@H](C)CC)C(=O)N(C)[C@@H](C)C(=O)N3CC[C@H]3C(=O)N(C)[C@@H](Cc3ccc(C(F)(F)F)cc3)C(=O)N(C)CC(=O)N[C@@H](CCc3cc(F)c(C(F)(F)F)c(F)c3)C(=O)N2C1 [Compound 1261] ([NMeL]I[NMeA][Aze][NMePhe(4-CF3)][Sar][hPhe(3,5-F2-4-CF3)][Hyp](Et)[Ac5c][NMeI][NMeD]-Morpholide; lactam N-11)",0.65 nM
